As usually defined, the IC50 is the concentration that inhibits the measured activity by half.

Molecules are shown by their SMILES.

The values below come from BindingDB's records for doi:10.1021/acs.jmedchem.9b01967 (The University of Tokyo, 2020).

The assay can be described thus: Inhibition of ATX (unknown origin)-mediated cell migration in human MDA-MB-231 cells assessed as reduction in cell motility after 3 hrs by Diff-Quick staining based microplate reader analysis.

Turning to `CCCCCCn1c(C)cc(=O)n2cc(-c3ccc(Cl)cc3)nc12`, the IC50 was determined as 30 nM.
